Source: patent US20230079819A1, “COMPOUNDS AND USES THEREOF” (Foghorn Therapeutics Inc., priority 2019, published 2023)

Assays:
[1] = biological target: T1, BRM (Homo sapiens, UniProt P51531); assay: ATPase catalytic activity of BRM, ADP-Glo in vitro biochemical assay; conditions: ATPase catalytic activity, 30 nM BRM, 400 μM ATP, read-out: BRM IP50
T1 construct: made in house; host or cells: High Five insect cells

[2] = biological target: T2, BRG-1 (Homo sapiens, UniProt P51532); assay: ATPase catalytic activity of BRG-1, ADP-Glo in vitro biochemical assay; conditions: ATPase catalytic activity, 30 nM BRG-1, 400 μM ATP, read-out: BRG1 IP50
T2 construct: made in house; host or cells: High Five insect cells
T2 sequence (P51532 whole entry): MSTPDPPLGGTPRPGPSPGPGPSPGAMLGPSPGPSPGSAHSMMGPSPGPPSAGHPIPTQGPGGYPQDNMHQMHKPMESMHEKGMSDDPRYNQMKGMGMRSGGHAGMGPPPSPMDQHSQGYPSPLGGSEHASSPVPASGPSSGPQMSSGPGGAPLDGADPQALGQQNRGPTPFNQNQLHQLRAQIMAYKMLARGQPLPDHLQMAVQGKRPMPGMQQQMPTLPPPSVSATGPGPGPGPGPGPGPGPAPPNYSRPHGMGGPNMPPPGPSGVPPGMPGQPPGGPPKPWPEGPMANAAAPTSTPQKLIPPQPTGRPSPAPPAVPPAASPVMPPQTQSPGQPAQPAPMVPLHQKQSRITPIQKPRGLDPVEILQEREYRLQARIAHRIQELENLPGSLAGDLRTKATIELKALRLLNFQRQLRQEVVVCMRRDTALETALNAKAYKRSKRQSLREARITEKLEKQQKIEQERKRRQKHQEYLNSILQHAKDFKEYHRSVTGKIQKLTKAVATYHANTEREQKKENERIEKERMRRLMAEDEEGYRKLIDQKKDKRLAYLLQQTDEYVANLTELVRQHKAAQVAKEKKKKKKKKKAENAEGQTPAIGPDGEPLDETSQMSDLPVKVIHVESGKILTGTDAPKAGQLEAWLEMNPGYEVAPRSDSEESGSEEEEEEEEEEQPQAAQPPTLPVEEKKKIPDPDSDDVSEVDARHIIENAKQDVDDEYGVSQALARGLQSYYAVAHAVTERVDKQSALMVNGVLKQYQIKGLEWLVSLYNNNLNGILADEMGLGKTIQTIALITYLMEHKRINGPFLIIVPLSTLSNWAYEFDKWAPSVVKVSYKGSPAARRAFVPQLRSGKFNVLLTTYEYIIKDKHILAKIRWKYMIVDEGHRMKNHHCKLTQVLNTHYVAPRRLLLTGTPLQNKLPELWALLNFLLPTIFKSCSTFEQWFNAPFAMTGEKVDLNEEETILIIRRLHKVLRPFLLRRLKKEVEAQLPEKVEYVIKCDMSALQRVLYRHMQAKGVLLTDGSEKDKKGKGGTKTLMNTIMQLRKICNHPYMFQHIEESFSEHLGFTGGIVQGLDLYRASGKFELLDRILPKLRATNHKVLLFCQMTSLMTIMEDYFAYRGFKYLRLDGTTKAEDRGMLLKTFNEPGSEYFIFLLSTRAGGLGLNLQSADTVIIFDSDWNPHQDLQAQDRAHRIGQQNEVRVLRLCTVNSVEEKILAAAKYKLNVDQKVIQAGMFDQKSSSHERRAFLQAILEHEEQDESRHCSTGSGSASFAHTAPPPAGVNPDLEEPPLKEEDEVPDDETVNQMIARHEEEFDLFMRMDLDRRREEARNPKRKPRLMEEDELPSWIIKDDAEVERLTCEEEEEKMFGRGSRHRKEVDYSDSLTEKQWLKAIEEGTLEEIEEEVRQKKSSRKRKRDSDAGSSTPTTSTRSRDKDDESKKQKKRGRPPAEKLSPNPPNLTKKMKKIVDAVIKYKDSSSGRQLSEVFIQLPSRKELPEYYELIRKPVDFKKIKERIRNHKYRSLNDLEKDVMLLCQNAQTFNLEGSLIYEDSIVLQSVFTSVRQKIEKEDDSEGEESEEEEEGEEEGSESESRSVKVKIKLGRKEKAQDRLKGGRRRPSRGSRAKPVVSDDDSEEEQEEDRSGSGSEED

T1 sequence (P51531 whole entry): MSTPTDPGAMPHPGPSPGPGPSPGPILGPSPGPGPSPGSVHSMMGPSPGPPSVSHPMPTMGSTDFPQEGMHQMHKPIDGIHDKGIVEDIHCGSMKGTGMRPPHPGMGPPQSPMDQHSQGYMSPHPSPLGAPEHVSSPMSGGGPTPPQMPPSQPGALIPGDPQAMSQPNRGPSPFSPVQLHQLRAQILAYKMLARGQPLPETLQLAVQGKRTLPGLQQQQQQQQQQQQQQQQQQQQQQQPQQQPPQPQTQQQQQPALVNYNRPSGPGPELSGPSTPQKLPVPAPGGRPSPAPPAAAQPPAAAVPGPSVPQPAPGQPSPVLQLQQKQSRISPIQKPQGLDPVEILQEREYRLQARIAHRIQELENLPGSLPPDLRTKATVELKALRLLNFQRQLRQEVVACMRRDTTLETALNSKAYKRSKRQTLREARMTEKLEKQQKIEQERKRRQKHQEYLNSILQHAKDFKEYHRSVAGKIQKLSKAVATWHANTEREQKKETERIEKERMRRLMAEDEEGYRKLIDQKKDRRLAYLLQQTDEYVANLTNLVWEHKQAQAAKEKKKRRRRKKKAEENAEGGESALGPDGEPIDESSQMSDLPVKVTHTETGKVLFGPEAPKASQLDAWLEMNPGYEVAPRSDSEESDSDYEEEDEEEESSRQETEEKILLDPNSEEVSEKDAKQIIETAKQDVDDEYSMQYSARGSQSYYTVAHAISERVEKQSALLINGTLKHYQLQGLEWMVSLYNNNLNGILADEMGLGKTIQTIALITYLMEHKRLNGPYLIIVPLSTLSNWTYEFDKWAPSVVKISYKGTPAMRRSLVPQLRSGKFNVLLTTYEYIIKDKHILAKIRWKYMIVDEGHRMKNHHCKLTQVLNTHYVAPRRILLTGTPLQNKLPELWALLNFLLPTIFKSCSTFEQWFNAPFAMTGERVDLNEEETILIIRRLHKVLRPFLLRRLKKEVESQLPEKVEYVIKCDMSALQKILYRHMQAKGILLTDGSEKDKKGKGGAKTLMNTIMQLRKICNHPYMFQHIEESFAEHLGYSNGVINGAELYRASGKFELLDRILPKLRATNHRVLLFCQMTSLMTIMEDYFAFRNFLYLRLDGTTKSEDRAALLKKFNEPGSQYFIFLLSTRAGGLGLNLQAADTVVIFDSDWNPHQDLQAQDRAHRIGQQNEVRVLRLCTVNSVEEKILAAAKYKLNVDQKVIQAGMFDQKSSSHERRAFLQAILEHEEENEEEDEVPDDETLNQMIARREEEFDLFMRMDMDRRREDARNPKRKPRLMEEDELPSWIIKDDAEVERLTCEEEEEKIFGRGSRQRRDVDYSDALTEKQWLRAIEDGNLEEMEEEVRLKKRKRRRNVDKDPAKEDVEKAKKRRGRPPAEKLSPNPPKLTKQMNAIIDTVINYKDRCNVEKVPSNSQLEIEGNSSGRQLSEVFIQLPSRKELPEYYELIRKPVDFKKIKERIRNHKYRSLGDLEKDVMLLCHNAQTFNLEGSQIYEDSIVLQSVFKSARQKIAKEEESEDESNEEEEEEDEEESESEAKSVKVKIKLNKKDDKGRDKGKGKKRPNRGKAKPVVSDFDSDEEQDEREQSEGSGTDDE

IC50 [1] [nM] | IC50 [2] [nM] | SMILES
> 100 | > 100 | COC[C@@H](NC(=O)c1ccn(S(C)(=O)=O)c1)C(=O)Nc1nc(-c2cccc(-c3ccnc(OC)c3)c2)cs1 [Compound 444]
> 10 | > 100 | CS(=O)(=O)n1ccc(C(=O)NCC(=O)Nc2nc(-c3cccc(N4CC5CCC(C4)O5)c3)cs2)c1 [Compound 445]
> 10 | > 10 | Cn1cc2c(n1)CCN(c1cccc(-c3csc(NC(=O)CNC(=O)c4ccn(S(C)(=O)=O)c4)n3)c1)C2 [Compound 446]
> 10 | > 10 | Cn1cc(-c2cccc(-c3csc(NC(=O)CNC(=O)c4ccn(S(C)(=O)=O)c4)n3)c2)nn1 [Compound 447]
> 10 | > 10 | CC(C)(C)n1ccc(C(=O)NCC(=O)Nc2nc(-c3cccc(N4CC(O)C4)c3)cs2)c1 [Compound 448]
> 10 | > 10 | CS(=O)(=O)n1ccc(C(=O)NCC(=O)Nc2nc(-c3cccc(N4CCC(F)CC4)c3)cs2)c1 [Compound 449]
> 10 | > 10 | CS(=O)(=O)n1ccc(C(=O)NCC(=O)Nc2nc(-c3cccc(N4CCO[C@H](CO)C4)c3)cs2)c1 [Compound 450]
> 100 | > 100 | CS(=O)(=O)n1ccc(C(=O)NCC(=O)Nc2nc(-c3cccc(N4CCN(C5COC5)CC4)c3)cs2)c1 [Compound 451]
> 10 | > 10 | CS(=O)(=O)n1ccc(C(=O)NCC(=O)Nc2nc(-c3cccc(N4CCO[C@@H](CO)C4)c3)cs2)c1 [Compound 452]
> 10 | > 10 | COC[C@H](NC(=O)c1ccn(C2(C)COC2)c1)C(=O)Nc1nc(-c2ccc3ccn(C)c(=O)c3c2)cs1 [Compound 453]
> 10 | > 10 | CS(=O)(=O)n1ccc(C(=O)NCC(=O)Nc2nc(-c3cc(F)cc(OC4CC4)c3)cs2)c1 [Compound 455]
< 10 | > 10 | C[C@@H]1CN(c2cccc(-c3csc(NC(=O)CNC(=O)c4ccn(C5(C#N)CC5)c4)n3)n2)C[C@H](C)O1 [Compound 458]
> 10 | > 10 | COC[C@H](NC(=O)c1ccn(S(C)(=O)=O)c1)C(=O)Nc1nc(-c2cccc(OC(F)(F)F)c2)cs1 [Compound 459]
> 10 | > 10 | CS(=O)(=O)n1ccc(C(=O)NCC(=O)Nc2nc(-c3cccc(N4CCC(N)C(F)(F)C4)c3)cs2)c1 (centres unmarked) [Compound 460]
> 100 | > 100 | COC[C@H](NC(=O)c1ccn(S(C)(=O)=O)c1)C(=O)Nc1nc(-c2cccc(N3CCC3)c2)c(F)s1 [Compound 461]
> 10 | > 10 | COC[C@H](NC(=O)c1ccn(S(C)(=O)=O)c1)C(=O)Nc1nc(-c2cccc(-c3ccn(C)n3)c2)cs1 [Compound 462]
> 10 | > 10 | CS(=O)(=O)n1ccc(C(=O)NCC(=O)Nc2nc(-c3cccc(C(F)(F)F)c3)cs2)c1 [Compound 463]
> 10 | > 100 | CC(C)(C)n1ccc(C(=O)NCC(=O)Nc2nc(-c3cccc(C4COC4)c3)cs2)c1 [Compound 464]
> 10 | > 10 | CS(=O)(=O)n1ccc(C(=O)NCC(=O)Nc2nc(-c3cccc(C4COC4)c3)cs2)c1 [Compound 465]
> 10 | > 10 | COC[C@H](NC(=O)c1ccn(S(C)(=O)=O)c1)C(=O)Nc1nc(-c2cccc(C3COC3)c2)cs1 [Compound 466]

IC50 [1] [nM] | IC50 [2] [nM] | SMILES
> 10 | > 10 | CS(=O)(=O)n1ccc(C(=O)NCC(=O)Nc2nc(-c3ccc4c(c3)N(C3CCOC3)CC4)cs2)c1 (centres unmarked) [Compound 467]
> 100 | > 100 | CC(C)N1CCc2ccc(-c3csc(NC(=O)CNC(=O)c4ccn(S(C)(=O)=O)c4)n3)cc21 [Compound 469]
> 10 | > 100 | Cn1ncc(-c2cccc(-c3csc(NC(=O)CNC(=O)c4ccn(C5(C)COC5)c4)n3)n2)n1 [Compound 470]
> 100 | > 100 | C[C@@H]1CN(c2cccc(-c3csc(NC(=O)CNC(=O)c4ccn(S(C)(=O)=O)c4)n3)c2)[C@@H](C)CO1 [Compound 471]
> 10 | > 10 | CS(=O)(=O)n1ccc(C(=O)NCC(=O)Nc2nc(-c3cccc(C4CC(F)(F)C4)c3)cs2)c1 [Compound 472]
> 10 | > 100 | N#CC1(n2ccc(C(=O)NCC(=O)Nc3nc(-c4cccc(N5CCC5)n4)cs3)c2)CC1 [Compound 473]
< 10 | < 10 | Cn1ccc2ccc(-c3csc(NC(=O)CNC(=O)c4ccn(C5(C#N)CC5)c4)n3)cc2c1=O [Compound 475]
> 10 | > 10 | N#CC1(n2ccc(C(=O)NCC(=O)Nc3nc(-c4cccc(N5CCC5)c4)cs3)c2)CC1 [Compound 476]
> 100 | > 100 | C[C@@H]1CN(c2cccc(-c3cccc(NC(=O)CNC(=O)c4ccn(S(C)(=O)=O)c4)c3F)c2)C[C@H](C)O1 [Compound 477, N-(2-((3′-(cis-2,6-dimethylmorpholino)-2-fluoro-[1,1′-biphenyl]-3-yl)amino)-2-oxoethyl)-1-(methylsulfonyl)-1H-pyrrole-3-carboxamide]
> 10 | > 10 | CC1COc2ccc(-c3csc(NC(=O)CNC(=O)c4ccn(S(C)(=O)=O)c4)n3)cc2N1C (centres unmarked) [Compound 478]
> 10 | > 10 | CO[C@H]1C[C@@H](c2cccc(-c3csc(NC(=O)CNC(=O)c4ccn(S(C)(=O)=O)c4)n3)c2)C1 [Compound 479]
> 100 | > 100 | CC(C)(C)n1ccc(C(=O)NCC(=O)Nc2nc(-c3cccc(C4CC(F)(F)C4)n3)cs2)c1 [Compound 481]
> 10 | > 10 | CC(C)(F)COc1cccc(-c2csc(NC(=O)CNC(=O)c3ccn(S(C)(=O)=O)c3)n2)c1 [Compound 483]
> 100 | > 100 | CC(C)(F)COc1cccc(-c2csc(NC(=O)CNC(=O)c3ccn(C4(C)COC4)c3)n2)c1 [Compound 484]
< 10 | < 10 | COC[C@H](NC(=O)c1ccn(C(C)(C)C)c1)C(=O)Nc1nc(-c2cc(C)c3ccn(C)c(=O)c3c2)cs1 [Compound 485]
> 10 | > 10 | CS(=O)(=O)n1ccc(C(=O)NCC(=O)Nc2nc(-c3ccc4c(c3)N(CC3COC3)CC4)cs2)c1 [Compound 486]
> 10 | > 10 | CS(=O)(=O)n1ccc(C(=O)NCC(=O)Nc2nc(-c3ccc4c(c3)N(CC(F)F)CC4)cs2)c1 [Compound 487]
> 100 | > 100 | C[C@H](NC(=O)c1ccn(C(C)(C)C)c1)C(=O)Nc1nc(-c2cccc(-c3cnn(C)n3)n2)cs1 [Compound 488]
> 10 | > 10 | CS(=O)(=O)n1ccc(C(=O)NCC(=O)Nc2nc(-c3ccnc(OC4CC4)c3)cs2)c1 [Compound 489]
> 10 | > 10 | Cn1ncc2ccc(-c3csc(NC(=O)CNC(=O)c4ccn(C(C)(C)C)c4)n3)cc2c1=O [Compound 492]

IC50 [1] [nM] | IC50 [2] [nM] | SMILES
> 100 | > 100 | Cn1ccc2ccc(-c3csc(NC(=O)CNC(=O)c4ccn(C56CC(C5)C6)c4)n3)cc2c1=O [Compound 493]
> 10 | > 10 | Cn1cnc2ccc(-c3csc(NC(=O)CNC(=O)c4ccn(C(C)(C)C)c4)n3)cc2c1=O [Compound 494]
> 10 | > 100 | CC(C)(C)n1ccc(C(=O)NCC(=O)Nc2nc(-c3cccc(C4(CO)CC4)n3)cs2)c1 [Compound 495]
> 100 | > 100 | N#CC1(n2ccc(C(=O)NCC(=O)Nc3nc(-c4cccc(OC(F)(F)F)n4)cs3)c2)CC1 [Compound 496]
> 100 | > 100 | CC(C)(F)COc1cccc(-c2csc(NC(=O)CNC(=O)c3ccn(C4(C#N)CC4)c3)n2)n1 [Compound 498]
< 10 | < 10 | CS(=O)(=O)n1ccc(C(=O)NCC(=O)Nc2nc(-c3cccc(N4CCC4)c3F)cs2)c1 [Compound 499]
> 10 | > 100 | CS(=O)(=O)n1ccc(C(=O)NCC(=O)Nc2nc(-c3cccc(OC(F)(F)F)c3F)cs2)c1 [Compound 501]
> 10 | > 10 | CS(=O)(=O)n1ccc(C(=O)NCC(=O)Nc2nc(-c3cccc(OCC4(F)COC4)c3)cs2)c1 [Compound 502]
> 100 | > 100 | CC(C)(C)n1ccc(C(=O)NCC(=O)Nc2nc(-c3cccc(OC(F)(F)F)n3)cs2)c1 [Compound 503]
> 10 | > 10 | Cn1ccc2ccc(-c3csc(NC(=O)CNC(=O)c4ccn(C5(C)CCC5)c4)n3)cc2c1=O [Compound 504]
> 100 | > 100 | C[C@@]1(n2ccc(C(=O)NCC(=O)Nc3nc(-c4cccc(N5CCC5)c4)cs3)c2)CCOC1 [Compound 505]
> 10 | > 100 | C[C@]1(n2ccc(C(=O)NCC(=O)Nc3nc(-c4cccc(N5CCC5)c4)cs3)c2)CCOC1 [Compound 506]
> 10 | > 10 | CS(=O)(=O)n1ccc(C(=O)NCC(=O)Nc2nc(-c3cccc(OC4CCC4)c3F)cs2)c1 [Compound 507]
> 100 | > 100 | CC(C)(C)n1ccc(C(=O)NCC(=O)Nc2nc(-c3cccc(OCC4(F)COC4)c3)cs2)c1 [Compound 509]
> 10 | > 10 | CC1(n2ccc(C(=O)NCC(=O)Nc3nc(-c4ccc(F)c(N5CCC5)c4)cs3)c2)COC1 [Compound 510]
< 10 | < 10 | CS(=O)(=O)n1ccc(C(=O)NCC(=O)Nc2nc(-c3ccc(F)c(N4CCC4)c3)cs2)c1 [Compound 511]
> 100 | > 100 | CC(C)(C)n1ccc(C(=O)NCC(=O)Nc2nc(-c3cccc(OC(F)F)n3)cs2)c1 [Compound 512]
> 100 | > 100 | CO[C@H]1C[C@H](c2cccc(-c3csc(NC(=O)CNC(=O)c4ccn(C(C)(C)C)c4)n3)n2)C1 [Compound 514]
